Patent publication US20090286802A1, “High Dose Folic Acid Compositions for Vascular Dysfunction” (priority 2005, published 2009)
“And” between values parts separate entries of the source, which are not always exact repeats. Equal entries are not always repeated.

Columns and labels:
[1] = system: patients with ischemic heart disease; assay: Hemodynamic variables (HR, RPP, blood pressure) at rest and during adenosine, double-blind placebo-controlled crossover study; format: in vivo, human; settings: for HR / DBP (diastolic blood pressure) / MAP (mean arterial blood pressure) / RPP (rate pressure product, SAP × HR) / SAP (systolic blood pressure): folate 30 mg oral, mean ± SD
Protocol: (§1) 14 patients with ischemic heart disease, age 62±12yr. (mean±SD), were enrolled in a double-blind, placebo controlled crossover trial. Basal and adenosine-stimulated myocardial blood flow (MBF) were determined by PET and myocardial flow reserve was calculated. Each patient was studied after ingestion of placebo and after ingestion of 30 mg folic acid. Myocardial zones were prospectively defined physiologically as “NORMAL” vs “ABNORMAL” based on MBF response to Ado 140 (NORMAL=MBF>1.65 ml/min/g). ABNORMAL and NORMAL zones were analyzed separately in a patient based analysis.
Patient Population: Adult male and female patients with coronary artery disease and normal serum homocysteine concentration (HCY<12 μM) were recruited from the greater Boston area. Coronary artery disease was defined as the presence of a >50% stenosis in at least one coronary artery identified by coronary arteriography within the last 5 years. Exclusion criteria included: inability to maintain a stable medical regimen during the study period, concurrent use of folic acid, or myocardial infarction or coronary intervention within the proceeding 3 months. The study protocol was approved by the local Human Research Committee and informed consent was obtained from each subject.
(§2) Study Drug Administration. Subjects were enrolled in a double-blinded, placebo-controlled, crossover study during which folate syrup (30 mg) or similar tasting placebo syrup was administered orally in two divided doses, 10-12 hours and 1 hour prior to MBF measurements. […] Folate and placebo were administered at least one week apart, in random order, and in a double-blinded manner.
(§3) Myocardial Blood Flow Measurements. Vasoactive medications were withheld for 3-5 half-lives, and subjects were asked to avoid caffeinated beverages for 24 h before blood flow measurements. MBF was assessed with PET (GE Medical Systems Scanditronix PC4096), approximately 1-hr after ingestion of the second dose of the study drug. PET measurements of MBF (^13N-ammonia method) were performed at rest and during the infusion of two doses of adenosine (70 and 140 mcg/kg/min), using a previously described method (Huggins, G. S., et al., Circulation 1998; 98:1291-6).
Statistical Analysis. Data are expressed as mean±SD. A repeated measures ANOVA was performed, (Statview v 4.0, Abacus Concepts), with terms for the order of folate vs. placebo administration, patient, and observations (blood pressure, MBF and G) for the three repeated measurements (adenosine 0, 70, and 140). To control for multiple testing, prospectively defined pair-wise t-tests comparing folate to placebo at each of the three adenosine doses were performed only if there was a significant main effect for folate or a significant interaction of folate with adenosine in the ANOVA analysis. Values of P<0.05 were considered significant.

[2] = system: patients with ischemic heart disease; assay: Myocardial blood flow (MBF) by PET (13N-ammonia) at rest and during adenosine, folate crossover study; format: in vivo, human; settings: for effect on myocardial blood flow in NORMAL regions: folate vs. placebo
Protocol: as §1, §2, §3
PET Image Analysis: Three short axis rings corresponding to the proximal, middle and distal thirds of the left ventricle were constructed for each K1 scan and MBF was measured within 24 standard areas of interest as described previously (Huggins, G. S., et al., Circulation 1998; 98:1291-6). Data analysis was performed without knowledge of treatment order. To determine the variability of the MBF measurement, two readers independently assessed adenosine-stimulated MBF in 120 segments in 5 subjects and the difference between and within readers was calculated. The mean (±SD) intra-, and inter-observer difference was 0.03±0.10 and 0.03±0.17 ml/min/gm, respectively.
Prospective Definition of Myocardial Zones. MBF in regions supplied by stenotic conduit vessels, which were expected to have abnormal dilator capacity, were prospectively examined separately from regions with normal dilator capacity. […] Accordingly, myocardial zones were defined physiologically as “NORMAL” vs. “ABNORMAL” based on MBF response to Ado 140 during the placebo condition. Myocardial zones with MBF with Ado 140 of <1.65 ml/min/g during placebo condition were defined as ABNORMAL. The corresponding myocardial regions were identified during the folate condition, and were labeled ABNORMAL regardless of their MBF during the folate condition. Values for ABNORMAL MBF were combined and averaged to obtain a single value of ABNORMAL blood flow for each patient at each condition, (placebo and folic acid) for each scan acquisition (rest, adenosine 70, or adenosine 140). A patient-based analysis of MBF was performed.
Dilator reserve for both NORMAL and ABNORMAL zones was defined as the difference between peak MBF and rest MBF. Peak MBF was defined as the higher of the two average MBF values obtained during adenosine (i.e, the greater of the average MBF obtained during adenosine 70 vs. adenosine 140 dose). This was done, since in patients with IHD, coronary “steal” may occur (Holmvang, G., et al., Circulation 1999; 99:2510-6). and so cause underestimation of dilator reserve in ABNORMAL regions.

[3] = oral administration; cited from earlier work
[4] = system: patients with stable chronic ischemic heart disease; assay: Myocardial blood flow by PET (13N-ammonia), sildenafil crossover study; format: in vivo, human; settings: for Myocardial Blood Flow: abnormal zones, sildenafil 100 mg given ~2-3 hrs before, mean ± SD
Protocol: The effects of sildenafil on myocardial blood flow were assessed. The chemical name for sildenafil is 5-[2-ethoxy-5(-4-methyl piperazine-1-ylsulfonyl)phenyl]-1-methyl-3-propyl-1,6-dihydro-7H-pyrazolo[4,3-d]pyrimidin-7-one. A study design similar to that used to test the effects of folate as described herein was used. In brief, myocardial blood flow (MBF) was measured in 14 patients with stable chronic ischemic heart disease using positron emission tomography with ^13N-ammonia. Patients were studied in double blind, placebo control, cross-over design with 100 mg sildenafil (or placebo) given ˜2-3 hrs prior to measurements of hemodynamics and myocardial blood flow at rest and during administration of adenosine at (140 μg/kg/min). Sildenafil improved myocardial blood flow in abnormal zones (Table 4). Also shown are data of the effect of folate (30 mg) on myocardial blood flow.

[5] = Ado 70, folate 30 mg oral, mean ± SD
[6] = Ado 140, folate 30 mg oral, mean ± SD
[7] = Peak, folate 30 mg oral, mean ± SD
[8] = Rest, folate 30 mg oral, mean ± SD
[9] = folate 30 mg oral, mean ± SD, listed as folate

## Nc1nc2ncc(CNc3ccc(C(=O)N[C@@H](CCC(=O)O)C(=O)O)cc3)nc2c(=O)[nH]1 [Folate, N[4-[[(2-amino-1,4-dihydro-4-oxo-6-pteridinyl)methyl]amino]benzoyl]-L-glutamic acid]
[1]; Ado 70 (adenosine 70 μg/kg/min)
  HR: 70 ± 14 bpm
[1]; Ado 70
  DBP (diastolic blood pressure): 68 ± 11 mmHg
  MAP (mean arterial blood pressure): 95 ± 13 mmHg
  RPP (rate pressure product, SAP × HR): 8604 ± 2484 mmHg × bpm
  SAP (systolic blood pressure): 123 ± 18 mmHg
[1]; Ado 140 (adenosine 140 μg/kg/min)
  HR: 82 ± 15 bpm
[1]; Ado 140
  DBP (diastolic blood pressure): 69 ± 10 mmHg
  MAP (mean arterial blood pressure): 95 ± 15 mmHg
  RPP (rate pressure product, SAP × HR): 9998 ± 3066 mmHg × bpm
  SAP (systolic blood pressure): 120 ± 21 mmHg
[1]; Rest
  DBP (diastolic blood pressure): 70 ± 9 mmHg
  HR: 61 ± 8 bpm
  MAP (mean arterial blood pressure): 96±11 mmHg and 96±2 mmHg
  RPP (rate pressure product, SAP × HR): 7483 ± 1798 mmHg × bpm
  SAP (systolic blood pressure): 121 ± 15 mmHg
[1]; folate 30 mg vs. placebo
  reduction in diastolic blood pressure: 5 mm Hg
[1]; folate vs. placebo
  change in HR: no significant change
  change in RPP: no significant change
[1]; folate vs. placebo, P<0.01 ANOVA
  effect on systolic, diastolic and mean arterial blood pressures: significant reduction
[1]; without changes in homocysteine concentration
  patients with significant reduction in blood pressure after high-dose folate: 11/14
[2]; [5]
  Myocardial Blood Flow, ABNORMAL zones: 1.60 ± 1.15 ml/min/gm
  Myocardial Blood Flow, NORMAL zones: 2.01 ± 0.88 ml/min/gm
  Ratio ABN:WNL (ABNORMAL/NORMAL zone MBF): 0.84 ± 0.37
[2]; [6]
  Myocardial Blood Flow, ABNORMAL zones: 1.76 ± 0.75 ml/min/gm
  Myocardial Blood Flow, NORMAL zones: 2.72 ± 0.74 ml/min/gm
  Ratio ABN:WNL (ABNORMAL/NORMAL zone MBF): 0.67 ± 0.21
[2]; Peak (adenosine-stimulated), folate 30 mg oral, mean ± SD
  Myocardial Blood Flow, ABNORMAL zones: 2.16±1.01 ml/min/gm
[2]; Peak (adenosine-stimulated), folate 30 mg oral, mean ± SD, listed as folic acid
  Myocardial Blood Flow, ABNORMAL zones: 2.16±1.01 ml/min/gm
[2]; [7]
  Myocardial Blood Flow, NORMAL zones: 2.86 ± 0.67 ml/min/gm
  Ratio ABN:WNL (ABNORMAL/NORMAL zone MBF): 0.75±0.24
[2]; [8]
  Myocardial Blood Flow, ABNORMAL zones: 0.74 ± 0.27 ml/min/gm
  Myocardial Blood Flow, NORMAL zones: 0.81 ± 0.19 ml/min/gm
  Ratio ABN:WNL (ABNORMAL/NORMAL zone MBF): 0.95 ± 0.17
[2]; after folate
  patients in whom flow reserve increased in ABNORMAL zones relative to NORMAL zones: 83 % of patients
  patients in whom peak MBF increased in ABNORMAL zones relative to NORMAL zones: 85 % of patients
[2]; folate 30 mg oral, mean ± SD
  Dilator Reserve (peak MBF minus rest MBF), ABNORMAL: 1.41 ± 1.08 ml/min/gm
  Dilator Reserve (peak MBF minus rest MBF), NORMAL: 2.12±0.69 ml/min/gm
  Dilator Reserve, Ratio ABN:WNL: 0.63 ± 0.36
[2]; [9]
  Dilator Reserve (peak MBF minus rest MBF), ABNORMAL: 1.41±1.08 ml/min/gm
  Dilator Reserve (peak MBF minus rest MBF), NORMAL: 2.12±0.69 ml/min/gm
[2]; folate 30 mg vs. placebo
  increase in dilator reserve in ABNORMAL segments: 83%
  increase in peak MBF in ABNORMAL zones: 49%
[2]
  effect on myocardial blood flow in NORMAL regions: did not affect
[2]; listed as folic acid
  effect on myocardial blood flow in NORMAL regions: did not change
[2]; of 13 patients with abnormal zones
  patients in whom ABNORMAL zone MBF improved after folate: 10 patients
[3]
  time to peak blood levels after administration: 30 to 60 min

## CCCc1nn(C)c2c(=O)[nH]c(-c3cc(S(=O)(=O)N4CCN(C)CC4)ccc3OCC)nc12 [Sildenafil, 5-[2-ethoxy-5(-4-methylpiperazine-1-ylsulfonyl)phenyl]-1-methyl-3-propyl-1,6-dihydro-7H-pyrazolo[4,3-d]pyrimidin-7-one]
[4]; Ado 140
  Myocardial Blood Flow: 1.58 ± 0.55 ml/min/gm
[4]; Rest
  Myocardial Blood Flow: 0.64 ± 0.20 ml/min/gm
[4]; sildenafil 100 mg vs. placebo
  effect on myocardial blood flow in abnormal zones: improved
